Results from paper PMC9569529, “Safe and Efficient Sigma1 Ligand: A Potential Drug Candidate for Multiple Sclerosis” (International Journal of Molecular Sciences, 2022).
Where “and” joins values, the source holds several entries; their conditions need not be identical. Identical values can stand only once. Like-named read-outs stand apart in the source and are kept apart here.

Experiments:
[1] = test system: human peripheral blood mononuclear cells (hPBMCs); experiment: Immunotoxicity, immunophenotyping by flow cytometry; assay type: cell-based; settings: 10 µM, 48 h
Description: Immunotoxicity analysis was performed by Immune Insight CRO (Lille, France) on human peripheral blood mononuclear cells (hPBMCs) from six individual healthy donors. hPBMCs were either non-stimulated (basal) or stimulated using E. coli lipopolysaccharide (LPS, Sigma Aldrich, St. Louis, MO, USA) at 100 ng/mL. hPBMCs were activated with plate-bound anti-CD3 (10 ng/mL) monoclonal antibody (mAb) and incubated at 37 °C for 2 h before the culture and soluble anti-CD28 (10 ng/mL) mAb (Clinisciences, Montrouge, France) were added. Compound 7i was tested at 10 µM. The quality of hPBMC activation was controlled using cytometric analysis based on CD25 staining and proliferation assays based on ^3H-thymidine incorporation. Immune cell subpopulations were immunophenotyped among hPBMCs by flow cytometry on an Attune NxT (Thermofisher Scientific Inc. Waltham, MA, USA). Analyses were performed at 48 h post treatment. The expression of B, CD4, CD8, Th17 and Treg lymphocyte surface antigens was tested using monoclonal mouse anti-human Ab (Miltenyi Biotec SAS, Paris, France) (Table 9). […]

HepG2 = experiment: Cytotoxicity analysis in HepG2 cells; assay type: cell-based, human; settings: % at 10 µM
Description: Cytotoxicity analysis was performed by Eurofins Cerep (Poitiers, France) according to [74]. Compound 7i was evaluated at 10 µM in the HepG2 cell line. Cell number, nuclear size, mitochondrial membrane potential, intracellular free calcium and membrane permeability were analyzed. % inhibition or % increase were calculated.

S1R = target: T1, S1R (Homo sapiens, UniProt Q99720); design: method as in PMID 28756263; settings: selectivity index; cited from earlier work
T1 construct: host or cells: Jurkat cell membranes

[2] = Pharmacokinetic study in plasma and brain; assay type: in vivo, male C57BL/6 mice; settings: 1 mg/kg; for Brain/Plasma / Kp at 0.5 h: at 30 min; for Brain AUC t^∞/AUC ∞: unit assumed; for Kp at 0.5 h / Tmax / half-life / concentration at 30 min / bioavailability: male, C57BL/6, mouse
Description: A pharmacokinetic (PK) study was performed by Eurofins Cerep (Poitiers, France) in male C57BL/6 mice (20–30 g) following i.v. and p.o. administrations of compound 7i at 1 mg/kg.
The plasma and perfused brain samples were collected at 0, 30, 60, 120, 240 and 280 min after treatment administration (n = 3 animal/time point). Animals were terminated under inhalant CO2 euthanasia. Blood was collected via cardiac puncture. Aliquots were collected in tubes coated with lithium heparin and centrifuged. The plasma was harvested and kept frozen at −70 °C until further processing. Immediately following the collection of the blood sample, animals were perfused with heparinized saline (10 IU/mL). The brain was collected, rinsed with saline to remove residual blood, weighed and stored at −70 °C until further analysis.
Plasma samples were processed using acetonitrile precipitation and analyzed by LC-MS/MS. A plasma calibration curve was generated. Aliquots of drug-free plasma were spiked with compound 7i at the specified concentration levels. The spiked plasma samples were processed together with the unknown plasma samples using the same procedure.
Each brain was homogenized for 10 s on ice in a proper volume of cold phosphate-buffered saline (PBS) at pH 7.4. The homogenate was centrifuged at 5400× g for 15 min at 4 °C. Supernatants were subsequently processed using acetonitrile precipitation and analyzed by LC-MS/MS. A brain calibration curve was generated. Aliquots of drug-free brain homogenate were spiked with compound 7i at the specified concentration levels. The spiked brain homogenate samples were processed together with the unknown brain homogenate samples using the same procedure.
Concentrations of compound 7i in the unknown plasma and brain samples were determined using the respective calibration curve. The reportable linear range of the assay was determined, along with the lower limit of quantitation (LLQ).
The exposure levels of compound 7i in the plasma and brain samples as determined by LC-MS/MS were reported (ng/mL). The [brain]/[plasma] ratios were calculated.
Pharmacokinetic modeling was performed using the non-compartmental method based on statistical moments. In this method, exchanges between kinetic spaces are expressed in time. The curves were obtained using R software (Package ggplot2, v3.3.6).

T1 sequence (Q99720 whole entry): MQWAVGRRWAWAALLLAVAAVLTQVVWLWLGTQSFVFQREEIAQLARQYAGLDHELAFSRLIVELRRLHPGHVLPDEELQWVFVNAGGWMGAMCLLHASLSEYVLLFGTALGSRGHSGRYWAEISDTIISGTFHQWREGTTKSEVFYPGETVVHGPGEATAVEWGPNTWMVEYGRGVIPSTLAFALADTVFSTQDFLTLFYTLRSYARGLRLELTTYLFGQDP

For `CN(CCCNC(=O)c1ccc(Cl)cc1)Cc1ccccc1` [compound 7i], the “effect on percentage of B, Th17, CD4 and CD8 T lymphocyte subpopulations and regulatory T cells” value ([1]; basal non-stimulating conditions) was “no effect”, the “toxicity on immune subpopulations” value ([1]; stimulating or not stimulating conditions) was “no toxicity effect” and the “HepG2 Cell number” value (HepG2) was −3%. For the same molecule, the “HepG2 Intracell free calcium” value (HepG2) was 0%, the “HepG2 Membrane permeability” value (HepG2) was 0% and the “HepG2 Mitochondrial membrane potential” value (HepG2) was 5%. For the same molecule, the “HepG2 Nuclear size” value (HepG2) was 9%, the “Ki Ratio S2R/S1R” value (S1R) was 60 and the “increase of total clearance, p.o. versus i.v.” value [2] was 20 times. For the same molecule, the “C30 after i.v. relative to p.o.” value ([2]; in the plasma or in the brain) was “more than 10 times”, the CLT ([2]; i.v.) was 3.8 mL/min and the CLbrain ([2]; i.v.) was 1.8 mL/min. The “D (diffusion in the brain)” value ([2]; i.v.) was 62% and 61.7%, the MAT ([2]; i.v.) was 0 min and the “Plasma AUC t^∞/AUC ∞” value ([2]; i.v.) was 0.9. For the same molecule, the Brain/Plasma ([2]; i.v.) was 2.9, the Brain AUC t^∞/AUC ∞ ([2]; i.v., brain) was 5.9% and the “Plasma Cmax (simulated)” value ([2]; i.v., mouse plasma, simulated) was 180 ng/mL. The Kp at 0.5 h ([2]; brain, iv) was 3, the Tmax ([2]; brain, iv, i.v., brain, read-out: Brain tmax) was at most 30 min and the half-life ([2]; brain, iv, read-out: Brain t1/2 el) was 96.4 min. It also gave a Kp at 0.5 h ([2]; brain, po) of 3, a Tmax ([2]; brain, po, p.o., brain, read-out: Brain tmax) of at most 30 min and a half-life ([2]; brain, po, read-out: Brain t1/2 el) of 78.9 min. The concentration at 30 min ([2]; iv, brain, read-out: Brain C30) was 234 ng/mL, the bioavailability ([2]; plasma, iv) was 100% and the concentration at 30 min ([2]; plasma, iv, read-out: Plasma C30) was 79.8 ng/mL. It also gave a Tmax ([2]; plasma, iv, i.v., mouse plasma, read-out: Plasma tmax) of 0 min, a half-life ([2]; plasma, iv, read-out: Plasma t1/2 el) of 44.5 min and a bioavailability ([2]; plasma, po) of 5%. It also gave a concentration at 30 min ([2]; plasma, po, read-out: Plasma C30) of 6.4 ng/mL, a Tmax ([2]; plasma, po, p.o., mouse plasma, read-out: Plasma tmax) of under 30 min and a half-life ([2]; plasma, po, read-out: Plasma t1/2 el) of 25.5 min. The concentration at 30 min ([2]; po, brain, read-out: Brain C30) was 20.7 ng/mL, the CLT ([2]; p.o.) was 74.9 mL/min and the CLbrain ([2]; p.o.) was 12.8 mL/min. For the same molecule, the MAT ([2]; p.o.) was 16.5 min, the “Plasma AUC t^∞/AUC ∞” value ([2]; p.o.) was 6.1 and the Vd ([2]; p.o.) was 0.168 L/kg. It also gave a Brain/Plasma ([2]; p.o.) of 3.2 and a Brain AUC t^∞/AUC ∞ ([2]; p.o., brain) of 7.6%.
